The values that follow come from PMC3320663 (Chemmedchem, 2011).

pEC50, pIC50: −log10 of the molar value. Several values for one entry are separate records, joined by “and”; a condition that tells them apart may be missing. Identical values can stand only once. Like-named read-outs stand apart in the source and are kept apart here.

Series [1] has as its target T1, TbTryS (Trypanosoma brucei, UniProt Q586P2).
T1 sequence (Q586P2 1-627): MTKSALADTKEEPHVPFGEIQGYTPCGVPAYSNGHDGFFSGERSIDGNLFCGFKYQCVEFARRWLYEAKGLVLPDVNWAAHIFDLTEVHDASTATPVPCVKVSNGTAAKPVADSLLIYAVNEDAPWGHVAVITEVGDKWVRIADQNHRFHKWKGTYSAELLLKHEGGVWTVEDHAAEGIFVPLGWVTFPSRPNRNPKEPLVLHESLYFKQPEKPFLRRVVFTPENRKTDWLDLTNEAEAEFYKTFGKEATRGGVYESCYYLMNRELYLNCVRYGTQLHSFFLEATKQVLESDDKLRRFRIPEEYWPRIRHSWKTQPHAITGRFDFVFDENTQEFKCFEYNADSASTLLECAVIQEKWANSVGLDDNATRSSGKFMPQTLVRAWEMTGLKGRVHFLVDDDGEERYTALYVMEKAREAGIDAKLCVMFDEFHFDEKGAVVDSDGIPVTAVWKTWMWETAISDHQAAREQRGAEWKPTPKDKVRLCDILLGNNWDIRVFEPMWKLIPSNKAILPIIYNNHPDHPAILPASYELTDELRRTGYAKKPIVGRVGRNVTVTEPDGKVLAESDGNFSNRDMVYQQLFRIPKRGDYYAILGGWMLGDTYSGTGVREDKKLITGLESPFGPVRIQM
As to the kind of experiment: Trypanothione synthetase. In kind it is biochemical. The note with it: for LE (ligand efficiency): calculated as −0.6×ln(IC50)/(heavy atom count).

Series [2] deals with bloodstream form T. brucei. As to the kind of experiment: Trypanosomal cell proliferation assay. It is filed as cell-based. The note with it: Trypanosoma brucei, read-out: Tb EC50.
Series [3] can be described thus: Human cell counter-screen proliferation assay. It is filed as cell-based. The note with it: MRC5 fibroblasts. (The purpose of a counterscreen is to sort out artefacts and off-target activity.)
A short description of series [4]: In vitro metabolic clearance assay. It is filed as in vitro ADME, human. The settings on record: for metabolic stability in words: pooled human liver microsomes; for Cli (intrinsic clearance): pooled human microsomes. A general note: Liver microsomes are a subcellular fraction often used to study metabolism.
Series [5] has as its system trypanothione levels in T. brucei parasites. The note with it: of wild-type levels; 2×EC50 for 72 h; cited from earlier work.
Series [6] deals with wild-type T. brucei cells. The settings on record: read-out: EC50 wild-type cell line; cited from earlier work.
Series [7] relates to TbTryS single knockout (SKO) cell line. The settings on record: read-out: EC50 SKO cell line; cited from earlier work.
Series [8] has as its system TbTryS overexpressing (OE) cell line. The settings on record: read-out: EC50 OE cell line; cited from earlier work.
The test system of series [9] is bloodstream form T. brucei. The settings on record: read-out: cell potency, cited from earlier work.

As to `CC(C)(C)S(=O)(=O)Cc1nc(-c2cccc(Cl)c2)cs1` [Compound 8, 2-((tert-Butylsulfonyl)methyl)-4-(3-chlorophenyl)thiazole], the pIC50 in series [1] (TbTryS IC50) was 6.40 and 6.39. Besides, the pEC50 in series [2] was 4.66. The molecule further had a pEC50 in [3] of less than 4.30. Besides, in [4], the “metabolic stability in words” value is recorded as “reasonably metabolically stable” and the “Cli (intrinsic clearance)” value worked out at 0.9 mL/min/g.
`O=C(Cn1nc(C(F)(F)F)c2c1CCCC2)NCc1ccc(Cl)cc1` [Compound 26, N-(4-Chlorobenzyl)-2-(3-(trifluoromethyl)-4,5,6,7-tetrahydro-1H-indazol-1-yl)acetamide] had a pIC50 in [1] (TbTryS IC50) of 5.52. Further, the pEC50 is 4.85 in series [2] and less than 4.30 in series [3]. In series [4], the “metabolic stability in words” value is “reasonably metabolically stable”. Moreover, the “Cli (intrinsic clearance)” value in series [4] was 3.0 mL/min/g.
For `CC(C)(C)C(=O)Cn1nc(-c2cccc(F)c2)c2ccccc21` [Compound 71, 1-(3-(3-Fluorophenyl)-1H-indazol-1-yl)-3,3-dimethylbutan-2-one], in series [1], the “in vitro enzyme potency improved over the best HTS hits” value was greater than 10 fold and the “LE (ligand efficiency)” value is 0.42. In [1] (TbTryS IC50), this molecule showed a pIC50 of 7.05. Further, the pEC50 in series [2] is 5.10. In [3], this molecule had a pEC50 of less than 4.30. Also, in [4], the “metabolic stability in words” value is reported as “reasonably metabolically stable” and the “Cli (intrinsic clearance)” value came to 1.6 mL/min/g.
In [1] (TbTryS IC50), `CC(C)(C)OC(=O)N1CCN(CCNC(=O)Cn2nc(-c3cccc(F)c3)c3ccccc32)CC1` [Compound 82, tert-Butyl-4-(2-(2-(3-(3-fluorophenyl)-1H-indazol-1-yl)acetamido)ethyl)piperazine-1-carboxylate] gave a pIC50 of 5.54. Also, the “LE (ligand efficiency)” value in series [1] is 0.22.
In the same order, the values of `CN(C)CCNC(=O)Cn1nc(-c2cccc(F)c2)c2ccccc21` [Compound 83, N-(2-(Dimethylamino)ethyl)-2-(3-(3-fluorophenyl)-1H-indazol-1-yl)acetamide] are 6.84 and 0.38.
Turning to `CN(C)CCCNC(=O)Cn1nc(-c2cccc(F)c2)c2ccccc21` [Compound 84, N-(3-(Dimethylamino)propyl)-2-(3-(3-fluorophenyl)-1H-indazol-1-yl)acetamide], the “in vitro enzyme potency improved over the best HTS hits” value in series [1] is on record as greater than 10 fold. The “improvement in potency over the analogous piperazines” value in series [1] (83 vs 90, 84 vs 80) stood at 18 fold. Besides, the “LE (ligand efficiency)” value in series [1] is 0.39. Also, the pEC50 is 5.27 in [2]; 4.70 in series [3]; 5.15 in series [6]; 5.92 in series [7]; 4.63 in series [8]. Also, the trypanothione levels in series [5] was less than 10%.
In turn, `O=C(Cn1nc(-c2cccc(F)c2)c2ccccc21)NCc1ccc(Cl)cc1` [Compound 86, N-(4-Chlorobenzyl)-2-(3-(3-fluorophenyl)-1H-indazol-1-yl)acetamide] gave a pIC50 in series [1] (TbTryS IC50) of less than 4.00.
In the case of `CCN(CC)C(=O)Cn1nc(-c2cccc(F)c2)c2ccccc21` [Compound 87, N,N-Diethyl-2-(3-(3-fluorophenyl)-1H-indazol-1-yl)acetamide], the pIC50 in [1] (TbTryS IC50) is 6.70. In addition, the “LE (ligand efficiency)” value in series [1] is on record as 0.39.
In the same order, the values of `CN(C)C(=O)Cn1nc(-c2cccc(F)c2)c2ccccc21` [Compound 88, 2-(3-(3-Fluorophenyl)-1H-indazol-1-yl)-N,N-dimethylacetamide] are 6.96 and 0.44.
With `O=C(Cn1nc(-c2cccc(F)c2)c2ccccc21)N1CCCCC1` [Compound 89, 2-(3-(3-Fluorophenyl)-1H-indazol-1-yl)-1-(piperidin-1-yl)ethanone], the pIC50 in [1] (TbTryS IC50) was 6.85; in [1] (TbTryS IC50, values in running text) it was 6.87. The “LE (ligand efficiency)” value in series [1] is recorded as 0.38. The pEC50 in series [2] was 5.29; in [3], less than 4.30; in series [6], 4.69; in series [7], 5.16; in series [8], 4.35. In addition, the trypanothione levels in series [5] was less than 10%.
On to `CN1CCN(CCNC(=O)Cn2nc(-c3cccc(F)c3)c3ccccc32)CC1` [Compound 90, 2-(3-(3-Fluorophenyl)-1H-indazol-1-yl)-N-(2-(4-methylpiperazin-1-yl)ethyl)acetamide], for which, in series [1] (TbTryS IC50), the pIC50 is 6.07. Moreover, the “LE (ligand efficiency)” value in series [1] was 0.29.
Turning to `NCCCC(N)(C(=O)O)C(F)F` (stereo not drawn) [eflornithine], in [9] (drugs in clinical use), the pEC50 is 4.66.
`Nc1nc(N)nc(Nc2ccc([As]3SCC(CO)S3)cc2)n1` (stereo not drawn) [melarsoprol]: the pEC50 in series [9] (drug in clinical use) is 8.10.
`CC1CS(=O)(=O)CCN1/N=C/c1ccc([N+](=O)[O-])o1` (stereo not drawn) [nifurtimox]: in [9] (drugs in clinical use), the pEC50 was 5.70.
Turning to “N-Methyl-(3-(dimethylamino)propyl)-2-(3-(3-fluorophenyl)-1H-indazol-1-yl)acetamide [Compound 85]”, the “LE (ligand efficiency)” value in [1] is listed as 0.35. Also, the pIC50 in series [1] (read-out: TbTryS IC50) was 6.77.

As a reminder, the pIC50 is −log10 of the IC50, conventionally taken in molar units.
